Tests used:
K-Ras G12S = molecular target: T1, K-Ras G12S (Homo sapiens, UniProt P01116, G12S); assay: HTRF resonance energy transfer assay, K-Ras G12S / SOS1 interaction; assay type: biochemical; conditions: HTRF assay of Example 5; read-out: IC50 against K-Ras G12S
T1 construct: made in house; host or cells: E. coli BL21 (DE3)
In short: (§1)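 Compounds, tested in duplicate at 10 μM down to 0.01 μM, were read after about 10 min or more by HTRF as the 665/620 nm emission ratio (337 nm excitation) to derive IC50. This ratio reports FRET between an anti-GST-Eu donor on GST-K-Ras (wild-type or mutant) and an anti-6His-XL665 acceptor on His-hSOS1. Buffer: ~5 mM HEPES pH 7.4, 150 mM NaCl, 1 mM DTT, 0.05% BSA, 0.0025% Igepal.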

A549 cells = assay: Ras cellular assay, growth of cells with K-Ras G12S mutation (CellTiter-Glo); assay type: cell-based; conditions: Homo sapiens, cell growth, Example 9, G12S mutation, read-out: IC50 against A549 cells
In short: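 Growth inhibition IC50 values come from four-parameter fits of CellTiter-Glo luminescence, read about 6 days after compound addition. G12S-mutant A549 cells (e.g. 800/well, RPMI-1640 + 10% heat-inactivated FBS) were plated in tissue-culture-treated or ultra-low-attachment 384-well format. Dosing began the following day with serial dilutions, e.g. 10 points, 3-fold.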

GP2D cells = assay: Ras cellular assay, growth of cells with K-Ras G12D mutation (CellTiter-Glo); assay type: cell-based; conditions: cell growth, Example 9, G12D mutation, read-out: IC50 against GP2D cells
SW620 cells = assay: Ras cellular assay, growth of cells with K-Ras G12V mutation (CellTiter-Glo); assay type: cell-based; conditions: Homo sapiens, SW-620; cell growth, Example 9, G12V mutation; read-out: IC50 against SW620 cells
In short: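 IC50 values came from a four-parameter fit of CellTiter-Glo viability, read roughly 6 days after dosing with e.g. a 10-point threefold dilution series. G12V-mutant SW620 cells (e.g. 800 per well) had been plated the previous day in RPMI-1640/10% heat-inactivated FBS, on tissue culture-treated or ultra-low attachment plates.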

K-Ras G12D = molecular target: T2, K-Ras G12D (Homo sapiens, UniProt P01116, G12D); assay: HTRF resonance energy transfer assay, K-Ras G12D / SOS1 interaction; assay type: biochemical; conditions: HTRF assay of Example 5; read-out: IC50 against K-Ras G12D
T2 construct: made in house; host or cells: E. coli BL21 (DE3)
In short: as §1

K-Ras G12V = molecular target: T3, K-Ras G12V (Homo sapiens, UniProt P01116, G12V); assay: HTRF resonance energy transfer assay, K-Ras G12V / SOS1 interaction; assay type: biochemical; conditions: HTRF assay of Example 5; read-out: IC50 against K-Ras G12V
T3 construct: made in house; host or cells: E. coli BL21 (DE3)
In short: as §1

K-Ras WT = molecular target: T4, K-Ras WT (Homo sapiens, UniProt P01116); assay: HTRF resonance energy transfer assay, K-Ras WT / SOS1 interaction; assay type: biochemical; conditions: HTRF assay of Example 5; read-out: IC50 against K-Ras WT
T4 construct: made in house; host or cells: E. coli BL21 (DE3)
In short: as §1

T4 sequence (P01116 1-188 isoform P01116-2): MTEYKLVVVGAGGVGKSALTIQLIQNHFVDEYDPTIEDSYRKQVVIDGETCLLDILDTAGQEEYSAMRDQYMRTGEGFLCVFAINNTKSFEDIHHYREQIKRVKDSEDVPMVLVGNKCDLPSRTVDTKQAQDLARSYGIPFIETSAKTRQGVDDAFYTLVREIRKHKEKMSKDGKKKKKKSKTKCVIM
T3 sequence (P01116 1-188 isoform P01116-2 G12V): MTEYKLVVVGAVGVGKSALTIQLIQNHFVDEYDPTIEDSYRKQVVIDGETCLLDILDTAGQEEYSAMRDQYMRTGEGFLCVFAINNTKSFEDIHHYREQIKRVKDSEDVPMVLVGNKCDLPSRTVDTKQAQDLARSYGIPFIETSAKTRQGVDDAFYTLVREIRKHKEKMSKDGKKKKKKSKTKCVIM
T2 sequence (P01116 1-188 isoform P01116-2 G12D): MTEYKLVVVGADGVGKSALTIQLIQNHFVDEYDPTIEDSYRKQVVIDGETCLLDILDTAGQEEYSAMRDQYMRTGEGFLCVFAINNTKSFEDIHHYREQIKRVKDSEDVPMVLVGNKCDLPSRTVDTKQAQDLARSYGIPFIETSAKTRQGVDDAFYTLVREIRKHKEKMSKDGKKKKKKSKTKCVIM
T1 sequence (P01116 1-188 isoform P01116-2 G12S): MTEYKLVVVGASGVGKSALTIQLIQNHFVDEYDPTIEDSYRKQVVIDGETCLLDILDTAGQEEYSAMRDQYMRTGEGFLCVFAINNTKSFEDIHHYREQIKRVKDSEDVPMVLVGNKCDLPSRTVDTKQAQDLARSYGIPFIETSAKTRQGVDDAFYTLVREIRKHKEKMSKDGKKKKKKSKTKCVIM

Question: Which results are given for `N#Cc1c(N)sc2c(F)ccc(-c3c(Cl)c4c5c(nc(OC[C@@]67CCCN6C[C@H](F)C7)nc5c3F)N(CC(F)(F)F)CCO4)c12` [Compound 721, 2-amino-4-(8-chloro-10-fluoro-2-(((2R,7aS)-2-fluorotetrahydro-1H-pyrrolizin-7a(5H)-yl)methoxy)-4-(2,2,2-trifluoroethyl)-5,6-dihydro-4H-[1,4]oxazepino[5,6,7-de]quinazolin-9-yl)-7-fluorobenzo[b]thiophene-3-carbonitrile]?
Answer: IC50 (K-Ras G12S): < 100 nM; IC50 (A549 cells): < 5 µM; IC50 (GP2D cells): < 500 nM; IC50 (SW620 cells): < 5 µM; IC50 (K-Ras G12D): < 100 nM; IC50 (K-Ras G12V): < 100 nM; IC50 (K-Ras WT): < 100 nM

Question: For `CN(C)C1(CN2CCOc3c(Cl)c(-c4ccc(F)c5sc(N)c(C#N)c45)c(F)c4nc(OC[C@@]56CCCN5C[C@H](F)C6)nc2c34)CC1` [Compound 725, 2-amino-4-(8-chloro-4-((1-(dimethylamino)cyclopropyl)methyl)-10-fluoro-2-(((2R,7aS)-2-fluorotetrahydro-1H-pyrrolizin-7a(5H)-yl)methoxy)-5,6-dihydro-4H-[1,4]oxazepino[5,6,7-de]quinazolin-9-yl)-7-fluorobenzo[b]thiophene-3-carbonitrile], which IC50 (K-Ras G12S) is on record?
Answer: < 100 nM

Question: What about the IC50 (A549 cells) of the same compound?
Answer: < 5 µM

Question: And the IC50 (GP2D cells)?
Answer: < 500 nM

Question: What about the IC50 (SW620 cells) of the same compound?
Answer: < 5 µM

Question: What about the IC50 (K-Ras G12D) of the same compound?
Answer: < 100 nM

Question: What about the IC50 (K-Ras G12V) of the same compound?
Answer: < 100 nM

Question: What about the IC50 (K-Ras WT) of the same compound?
Answer: < 100 nM

Question: For `C=C[C@H]1COc2c(Cl)c(-c3ccc(F)c4sc(N)c(C#N)c34)c(F)c3nc(OC[C@@]45CCCN4C[C@H](F)C5)nc(c23)N1C1CCOC1` (stereo partly drawn) [Compound 726, 2-amino-4-((5S)-8-chloro-10-fluoro-2-(((2R,7aS)-2-fluorotetrahydro-1H-pyrrolizin-7a(5H)-yl)methoxy)-4-(tetrahydrofuran-3-yl)-5-vinyl-5,6-dihydro-4H-[1,4]oxazepino[5,6,7-de]quinazolin-9-yl)-7-fluorobenzo[b]thiophene-3-carbonitrile], which IC50 (K-Ras G12S) is on record?
Answer: < 100 nM

Question: And the IC50 (A549 cells)?
Answer: < 5 µM

Question: What about the IC50 (GP2D cells) of the same compound?
Answer: < 500 nM

Question: What about the IC50 (SW620 cells) of the same compound?
Answer: < 5 µM

Question: What about the IC50 (K-Ras G12D) of the same compound?
Answer: < 100 nM

Question: What about the IC50 (K-Ras G12V) of the same compound?
Answer: < 100 nM

Question: What about the IC50 (K-Ras WT) of the same compound?
Answer: < 100 nM

Question: For `N#Cc1c(N)sc2c(F)ccc(-c3c(Cl)c4c5c(nc(OC[C@@]67CCCN6C[C@H](F)C7)nc5c3F)N(C3CCN(C(=O)[C@H]5CCOC5)C3)CCO4)c12` (stereo partly drawn) [Compound 736, 2-amino-4-(8-chloro-10-fluoro-2-(((2R,7aS)-2-fluorotetrahydro-1H-pyrrolizin-7a(5H)-yl)methoxy)-4-(1-((S)-tetrahydrofuran-3-carbonyl)pyrrolidin-3-yl)-5,6-dihydro-4H-[1,4]oxazepino[5,6,7-de]quinazolin-9-yl)-7-fluorobenzo[b]thiophene-3-carbonitrile], which IC50 (K-Ras G12S) is on record?
Answer: < 100 nM

Question: And the IC50 (A549 cells)?
Answer: < 5 µM

Question: What about the IC50 (GP2D cells) of the same compound?
Answer: < 500 nM

Question: What about the IC50 (SW620 cells) of the same compound?
Answer: < 5 µM

Question: And the IC50 (K-Ras G12D)?
Answer: < 100 nM

Question: And the IC50 (K-Ras G12V)?
Answer: < 100 nM

Question: And the IC50 (K-Ras WT)?
Answer: < 100 nM

Question: With `COC1(C)CC(N2CCOc3c(Cl)c(-c4ccc(F)c5sc(N)c(C#N)c45)c(F)c4nc(OC[C@@]56CCCN5C[C@H](F)C6)nc2c34)C1` (stereo partly drawn) [Compound 737, 2-amino-4-(8-chloro-10-fluoro-2-(((2R,7aS)-2-fluorotetrahydro-1H-pyrrolizin-7a(5H)-yl)methoxy)-4-(3-methoxy-3-methylcyclobutyl)-5,6-dihydro-4H-[1,4]oxazepino[5,6,7-de]quinazolin-9-yl)-7-fluorobenzo[b]thiophene-3-carbonitrile] as the compound, how does the IC50 (K-Ras G12S) read?
Answer: < 100 nM

Question: And the IC50 (A549 cells)?
Answer: < 5 µM

Question: And the IC50 (GP2D cells)?
Answer: < 500 nM

Question: What about the IC50 (SW620 cells) of the same compound?
Answer: < 5 µM

Question: What about the IC50 (K-Ras G12D) of the same compound?
Answer: < 100 nM

Question: What about the IC50 (K-Ras G12V) of the same compound?
Answer: < 100 nM

Question: And the IC50 (K-Ras WT)?
Answer: < 100 nM

Question: With `N#Cc1c(N)sc2c(F)ccc(-c3c(Cl)c4c5c(nc(OC[C@@]67CCCN6C[C@H](F)C7)nc5c3F)N(C3CCC(OC(F)F)C3)CCO4)c12` (stereo partly drawn) [Compound 740, 2-amino-4-(8-chloro-4-(3-(difluoromethoxy)cyclopentyl)-10-fluoro-2-(((2R,7aS)-2-fluorotetrahydro-1H-pyrrolizin-7a(5H)-yl)methoxy)-5,6-dihydro-4H-[1,4]oxazepino[5,6,7-de]quinazolin-9-yl)-7-fluorobenzo[b]thiophene-3-carbonitrile] as the compound, how does the IC50 (K-Ras G12S) read?
Answer: < 100 nM

Question: And the IC50 (A549 cells)?
Answer: < 5 µM

Question: What about the IC50 (GP2D cells) of the same compound?
Answer: < 500 nM

Question: What about the IC50 (SW620 cells) of the same compound?
Answer: < 5 µM

Question: What about the IC50 (K-Ras G12D) of the same compound?
Answer: < 100 nM

Question: And the IC50 (K-Ras G12V)?
Answer: < 100 nM

Question: And the IC50 (K-Ras WT)?
Answer: < 100 nM

Reference: patent publication US12209102B2, “Heterocyclic compounds and uses thereof” (Kumquat Biosciences Inc., priority 2022, dated 2025)
